Assay results: the supplement of paper PMC11061612

Experiments:
Assay in all cases: combination Emax (second highest fraction inhibited in the dose matrix, 72 h); higher = more inhibition; extreme values may be limits of the assay
[1] = test system: WSU-DLCL2 (B-Cell Non-Hodgkin's Lymphoma)
Method in brief: (§1)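 Cell lines in DMEM/F12 or RPMI with 10% FBS were plated in 1536-well plates, held 24 hours at 37°C, 5% CO2, then given two-drug dose matrices for 72 hours (DMSO typically 0.2%). Viability was read by CellTiter-Glo 2.0 luminescence and scaled as inhibition from 0 (vehicle wells) to 1 (blank wells). Combination Emax is the second-highest inhibition in the matrix; Bliss excess is observed combination effect minus expected EA + EB − EA·EB, EA and EB being single-agent effects.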

[2] = test system: YT (Other Blood Carcinomas)
Method in brief: as §1

[3] = test system: SW948 (Colorectal Carcinoma)
Method in brief: as §1

D-392MG (Glioblastoma) = test system: D-392MG (Glioblastoma)
Method in brief: as §1

[4] = test system: SK-UT-1 (Other Solid Carcinomas)
Method in brief: as §1

[5] = test system: ETK-1 (Biliary Tract Carcinoma)
Method in brief: as §1

[6] = test system: SKN-3 (Head and Neck Carcinoma)
Method in brief: as §1

CS1 (Chondrosarcoma) = test system: CS1 (Chondrosarcoma)
Method in brief: as §1

Saos-2 (Osteosarcoma) = test system: Saos-2 (Osteosarcoma)
Method in brief: as §1

[7] = test system: SW48 (Colorectal Carcinoma)
Method in brief: as §1

[8] = test system: DOK (Oral Cavity Carcinoma)
Method in brief: as §1

[9] = test system: 647-V (Bladder Carcinoma)
Method in brief: as §1

[10] = test system: CAL-39 (Other Solid Carcinomas)
Method in brief: as §1

H4 (Low Grade Glioma) = test system: H4 (Low Grade Glioma)
Method in brief: as §1

[11] = test system: TYK-nu (Ovarian Carcinoma)
Method in brief: as §1

EW-22 (Ewing's Sarcoma) = test system: EW-22 (Ewing's Sarcoma)
Method in brief: as §1

[12] = test system: SNU-61 (Colorectal Carcinoma)
Method in brief: as §1

MCF7 (Breast Carcinoma) = test system: MCF7 (Breast Carcinoma)
Method in brief: as §1

[13] = test system: SNG-M (Endometrial Carcinoma)
Method in brief: as §1

[14] = test system: EKVX (Non-Small Cell Lung Carcinoma)
Method in brief: as §1

SMILES | combination Emax [1] | combination Emax [2] | combination Emax [3] | combination Emax (D-392MG (Glioblastoma)) | combination Emax [4] | combination Emax [5] | combination Emax [6] | combination Emax (CS1 (Chondrosarcoma)) | combination Emax (Saos-2 (Osteosarcoma)) | combination Emax [7] | combination Emax [8] | combination Emax [9] | combination Emax [10] | combination Emax (H4 (Low Grade Glioma)) | combination Emax [11] | combination Emax (EW-22 (Ewing's Sarcoma)) | combination Emax [12] | combination Emax (MCF7 (Breast Carcinoma)) | combination Emax [13] | combination Emax [14]
CC1(C)CCC(CN2CCN(c3ccc(C(=O)NS(=O)(=O)c4ccc(NCC5CCOCC5)c([N+](=O)[O-])c4)c(Oc4cnc5[nH]ccc5c4)c3)CC2)=C(c2ccc(Cl)cc2)C1 [Venetoclax] + Cc1cc2ncnn2cc1Nc1ncc2c(n1)n(C1CCOCC1)c(=O)n2C [AZD7648] (first compound max 1 µM, 7x7, partner max 10 µM) | 0.442 | 0.732 | 0.459 | 0.178 | 0.221 | 0.253 | 0.0976 | 0.297 | 0.325 | 0.369 | 0.247 | 0.209 | 0.247 | 0.322 | 0.36 | 0.842 | 0.154 | 0.31 | 0.131 | 0.161
CCc1c2c(nc3ccc(O)cc13)-c1cc3c(c(=O)n1C2)COC(=O)[C@]3(O)CC [SN-38] + CN(C)CCCOc1ccc(-c2ccc3ncc4c(c3c2)n(C2CCOCC2)c(=O)n4C)cn1 [AZD0156] (first compound max 0.3 µM, 7x7, partner max 1 µM) | 0.944 | 0.914 | 0.746 | 0.609 | 0.97 | 0.572 | 0.47 | 0.821 | 0.944 | 0.826 | 0.488 | 0.985 | 0.896 | 0.931 | 0.847 | 0.951 | 0.152 | 0.686 | 0.433 | 0.188
Cc1c2c(nn1C)CSCc1cc(n(C)n1)CSc1cc(c3ccccc3c1)OCCCc1c(C(=O)O)n(C)c3c-2c(Cl)ccc13 [AZD5991] + C1CN(CCC1(C(=O)N[C@@H](CCO)C2=CC=C(C=C2)Cl)N)C3=NC=NC4=C3C=CN4 [Capivasertib] (first compound max 1 µM, 7x7, partner max 3 µM) | 1 | 1 | 0.569 | 0.495 | 0.24 | 0.254 | 0.121 | 0.255 | 0.52 | 0.28 | 0.383 | 0.676 | 0.384 | 0.495 | 0.36 | 0.624 | 0.117 | 0.687 | 0.333 | 0.301
COc1cccc2c1C(=O)c1c(O)c3c(c(O)c1C2=O)C[C@@](O)(C(=O)CO)C[C@@H]3O[C@H]1C[C@H](N)[C@H](O)[C@H](C)O1 [Doxorubicin] + Cc1cc2ncnn2cc1Nc1ncc2c(n1)n(C1CCOCC1)c(=O)n2C [AZD7648] (first compound max 1 µM, 7x7, partner max 10 µM) | 1 | 0.862 | 0.52 | 0.586 | 0.873 | 0.562 | 0.32 | 0.772 | 0.862 | 0.94 | 0.697 | 0.958 | 0.654 | 0.818 | 0.704 | 0.947 | 0.321 | 0.623 | 0.767 | 0.378
CN(CCO)CC[C@H](CSc1ccccc1)Nc1ccc(S(=O)(=O)NC(=O)c2ccc(N3CCC([C@@H](O)c4ccccc4-c4ccc(Cl)cc4)CC3)cc2)cc1S(=O)(=O)C(F)(F)F [AZD4320] + C=CCn1c(=O)c2cnc(Nc3ccc(N4CCN(C)CC4)cc3)nc2n1-c1cccc(C(C)(C)O)n1 [AZD1775] (first compound max 1 µM, partner max 1 µM) | 1 | 0.88 | 0.745 | 0.763 | 0.693 | 0.618 | 0.368 | 0.647 | 0.707 | 0.825 | 0.504 | 0.949 | 0.345 | 1 | 0.65 | 0.988 | 0.349 | 0.51 | 0.903 | 0.244
Cc1cc2ncnn2cc1Nc1ncc2c(n1)n(C1CCOCC1)c(=O)n2C [AZD7648] + C=CCn1c(=O)c2cnc(Nc3ccc(N4CCN(C)CC4)cc3)nc2n1-c1cccc(C(C)(C)O)n1 [AZD1775] (first compound max 10 µM, partner max 1 µM) | 0.999 | 0.89 | 0.83 | 0.397 | 0.657 | 0.452 | 0.283 | 0.541 | 0.582 | 0.45 | 0.482 | 0.52 | 0.462 | 0.796 | 0.695 | 0.602 | 0.401 | 0.552 | 0.645 | 0.306
